Among the test systems are Escherichia coli; Staphylococcus aureus; Acinetobacter baumannii; Pseudomonas aeruginosa; Staphylococcus aureus MR; Escherichia coli UB1005; Candida albicans.
Holding throughout (test): ≥ marks a high value that may be exact or a test limit, other limits are often not marked, values filed in µg/mL are converted to µM
The test system of assay [1] is Pseudomonas syringae pv. syringae EPS 94.
The subject of assay [2] is Erwinia amylovora PMV 6076.
For assay [3], the system named is Micrococcus luteus ATCC 9341.
The test system of assay [4] is Staphylococcus aureus ATCC 6538.
For assay [5], the system named is Candida albicans ATCC 36232.
Assay [6] deals with Escherichia coli ATCC 25922.
Assay [7] has as its system Salmonella enterica serovar Typhimurium.
Assay [8] has as its system Staphylococcus aureus ATCC 25923.
Assay [9] relates to Pseudomonas aeruginosa PAO1.
In assay [10] the test system is Pseudomonas aeruginosa H1001.
In assay [11] the test system is Staphylococcus aureus ATCC BAA-1556.
Assay [12] relates to Pseudomonas aeruginosa ATCC 10145.
The test system of assay [13] is Pseudomonas aeruginosa H103.
For assay [14], the system named is Staphylococcus epidermidis.
The subject of assay [15] is Enterococcus faecalis ATCC 29212.

The values below come from DBAASP.

Converted amounts (≈) assume the structure as drawn. “And” between values parts separate entries of the source, which are not always exact repeats. Equal values may be shown once.

One may read the MIC as the lowest concentration that inhibits growth of the organism. A lower MIC goes with inhibition by little substance. Regarding `CC[C@H](C)[C@H](NC(=O)[C@H](CCCCN)NC(=O)[C@H](CCCCN)NC(=O)[C@H](Cc1ccccc1)NC(=O)[C@H](CC(C)C)NC(=O)[C@H](CCCCN)NC(=O)[C@H](CCCCN)NC(=O)[C@@H](N)CO)C(=O)N[C@@H](CC(C)C)C(=O)N[C@@H](CCCCN)C(=O)N[C@@H](Cc1ccc(O)cc1)C(=O)N[C@@H](CC(C)C)C(=O)N[C@@H](C)C(=O)NCC(=O)N1CCC[C@H]1C(=O)N[C@@H](C)C(=O)N[C@@H](CCCCN)C(=O)N[C@@H](Cc1ccccc1)C(=O)N[C@@H](CC(C)C)C(=O)N[C@@H](Cc1cnc[nH]1)C(=O)N[C@@H](CO)C(=O)N[C@@H](C)C(=O)N[C@@H](CCCCN)C(=O)O` [SKKLFKKILKYLAGPAKFLHSAK], the MIC in assay [1] and in [2] was 3.54 µM (≈ 9.25 µg/mL) in each case.
Consider `CC(C)[C@H](NC(=O)[C@H](CCCCN)NC(=O)[C@H](Cc1ccccc1)NC(=O)[C@@H](NC(=O)[C@@H](NC(=O)[C@H](CCCCN)NC(=O)[C@@H](N)CCCCN)C(C)C)C(C)C)C(=O)N[C@@H](CCCCN)C(=O)N[C@@H](Cc1ccccc1)C(=O)N[C@@H](CCCCN)C(=O)N[C@@H](CCCCN)C(=O)N[C@@H](CCCCN)C(N)=O` [KKVVFKVKFKKK], for which the minimal inhibitory concentration (MIC) is 2.08 µM (≈ 3.13 µg/mL) in assay [3]; 2.08 µM (≈ 3.13 µg/mL) in assay [4]; 2.08 µM and 1.47 µM and 4.15 µM in assay [5].
In the case of `CC[C@H](C)[C@H](NC(=O)[C@H](CCCN=C(N)N)NC(=O)[C@H](CC(C)C)NC(=O)[C@H](CCC(N)=O)NC(=O)[C@@H](N)C(C)C)C(=O)N[C@@H](CCCN=C(N)N)C(=O)N[C@H](C(=O)N[C@@H](CS)C(=O)N[C@H](C(=O)N[C@H](C(=O)N[C@@H](CCCN=C(N)N)C(=O)N[C@@H](CCCN=C(N)N)C(=O)O)[C@@H](C)CC)C(C)C)C(C)C` [VQLRIRVCVIRR], the minimal inhibitory concentration (MIC) in [6] is 10.6 µM (≈ 16 µg/mL); in [7], 10.6 µM (≈ 16 µg/mL); against Escherichia coli it was above 84.7 µM; in the assay with Staphylococcus aureus it was 15 µM (≈ 22.6 µg/mL); against Acinetobacter baumannii it was 30 µM (≈ 45.3 µg/mL); against Pseudomonas aeruginosa, 21.2 µM (≈ 32 µg/mL). Besides, the minimum inhibitory concentration (MIC) in [8] is 10.6 µM (≈ 16 µg/mL); in [9], 21.2 µM (≈ 32 µg/mL).
The molecule `CC[C@H](C)[C@H](NC(=O)[C@H](C)NC(=O)[C@@H](NC(=O)[C@H](CCCCN)NC(=O)[C@H](CCCCN)NC(=O)[C@H](Cc1cnc[nH]1)NC(=O)[C@@H](NC(=O)[C@H](CCCN=C(N)N)NC(=O)[C@H](CS)NC(=O)[C@@H](N)CC(C)C)C(C)C)[C@@H](C)CC)C(=O)O` [LCRVHKKIAI] yielded an MIC in assay [10] of at least 169 µM.
Molecule `CC[C@H](C)[C@H](NC(=O)[C@H](CCCCN)NC(=O)[C@H](Cc1c[nH]c2ccccc12)NC(=O)[C@H](CCCCN)NC(=O)[C@@H](N)CCCCN)C(=O)N[C@H](C(=O)N[C@H](C(=O)N[C@H](C(=O)N[C@@H](CCCN=C(N)N)C(=O)N[C@@H](Cc1c[nH]c2ccccc12)C(=O)N[C@@H](CCCN=C(N)N)C(=O)N[C@@H](CCCN=C(N)N)C(N)=O)[C@@H](C)CC)C(C)C)C(C)C` [KKWKIVVIRWRR] displayed an MIC in assay [10] of 1.2 µM (≈ 2 µg/mL).
`CC(C)C[C@H](NC(=O)[C@H](CC(C)C)NC(=O)[C@H](CCCCN)NC(=O)[C@H](CC(C)C)NC(=O)[C@H](CC(C)C)NC(=O)[C@H](Cc1c[nH]c2ccccc12)NC(=O)[C@@H](N)CCCCN)C(N)=O` [KWLLKLL] returned an MIC in [11] of at least 100 µM.
As for `CC(C)C[C@H](NC(=O)[C@H](CCCN=C(N)N)NC(=O)[C@H](Cc1c[nH]c2ccccc12)NC(=O)[C@H](CC(C)C)NC(=O)[C@H](Cc1c[nH]c2ccccc12)NC(=O)[C@H](Cc1c[nH]c2ccccc12)NC(=O)[C@H](CC(C)C)NC(=O)[C@H](Cc1c[nH]c2ccccc12)NC(=O)[C@@H](N)Cc1c[nH]c2ccccc12)C(N)=O` [WWLWWLWRL], in assay [11], the MIC was 3.12 µM (≈ 4.51 µg/mL).
Regarding `CC[C@H](C)[C@H](NC(=O)[C@H](C)NC(=O)[C@H](CC(C)C)NC(=O)[C@H](CCCN=C(N)N)NC(=O)[C@H](CC(C)C)NC(=O)[C@H](C)N)C(=O)N[C@@H](CCCN=C(N)N)C(=O)N[C@@H](CCCCN)C(=O)N[C@@H](CCCN=C(N)N)C(N)=O` [ALRLAIRKR], the MIC with Escherichia coli is 3.65 µM (≈ 4 µg/mL); with Staphylococcus aureus, 4.56 µM (≈ 5 µg/mL); against Staphylococcus aureus MR it was at least 43.8 µM; against Pseudomonas aeruginosa it was 13.7 µM (≈ 15 µg/mL).
In assay [10], `CC[C@H](C)[C@H](NC(=O)[C@H](C)NC(=O)[C@@H](N)CC(N)=O)C(=O)N[C@@H](CCCCN)C(=O)N[C@@H](CC(C)C)C(=O)N[C@@H](CC(C)C)C(=O)N[C@@H](CS)C(=O)N[C@@H](CCCN=C(N)N)C(=O)N[C@H](C(=O)N[C@@H](Cc1cnc[nH]1)C(=O)O)C(C)C` [NAIKLLCRVH] returned an MIC of at least 85.7 µM.
Still for that read-out and setting: the result for `CC[C@H](C)[C@H](NC(=O)[C@H](CCCN=C(N)N)NC(=O)[C@H](CCCN=C(N)N)NC(=O)[C@@H]1CCCN1C(=O)[C@@H]1CCCN1C(=O)[C@H](CCCN=C(N)N)NC(=O)[C@@H]1CCCN1C(=O)[C@H](CCCN=C(N)N)NC(=O)[C@@H]1CCCN1C(=O)[C@H](CC(C)C)NC(=O)[C@H](Cc1ccc(O)cc1)NC(=O)[C@@H]1CCCN1C(=O)[C@@H]1CCCN1C(=O)[C@H](CCCCN)NC(=O)[C@@H]1CCCN1C(=O)[C@@H](N)C(C)C)C(=O)N[C@@H](Cc1ccc(O)cc1)C(=O)N[C@@H](CC(N)=O)C(=O)N[C@@H](CCCN=C(N)N)C(=O)NCC(=O)O` [VPKPPYLPRPRPPRRIYNRG] reads 0.123 µM (≈ 0.3 µg/mL).
`C[C@H](NC(=O)[C@H](C)NC(=O)[C@H](CCCCN)NC(=O)[C@H](CCCCN)NC(=O)[C@H](C)NC(=O)[C@H](Cc1ccccc1)NC(=O)[C@H](CCCCN)NC(=O)[C@H](CCCCN)NC(=O)[C@H](C)NC(=O)[C@H](C)NC(=O)[C@H](CCCCN)NC(=O)[C@H](CCCCN)NC(=O)[C@H](C)NC(=O)[C@H](Cc1ccccc1)NC(=O)[C@@H](N)CCCCN)C(=O)N[C@@H](CCCCN)C(=O)O` [KFAKKAAKKFAKKAAK] had a minimal inhibitory concentration (MIC) in assay [12] of at least 142 µM.
Molecule `NCCCC[C@H](NC(=O)[C@H](CCCN=C(N)N)NC(=O)[C@H](Cc1c[nH]c2ccccc12)NC(=O)[C@H](CCCCN)NC(=O)[C@H](Cc1c[nH]c2ccccc12)NC(=O)[C@H](Cc1c[nH]c2ccccc12)NC(=O)[C@H](Cc1cnc[nH]1)NC(=O)[C@H](Cc1ccccc1)NC(=O)[C@@H](N)CCCCN)C(N)=O` [KFHWWKWRK] gave a minimum inhibitory concentration (MIC) in assay [10] of at least 178 µM.
As to `CC[C@H](C)[C@H](NC(=O)[C@H](C)NC(=O)[C@H](CC(C)C)NC(=O)[C@H](CC(C)C)NC(=O)[C@H](Cc1c[nH]c2ccccc12)NC(=O)[C@H](C)N)C(=O)N[C@@H](CCCN=C(N)N)C(=O)N[C@@H](CCCCN)C(=O)N[C@@H](CCCN=C(N)N)C(N)=O` [AWLLAIRKR], the MIC with Escherichia coli amounted to 4.44 µM (≈ 5 µg/mL); in the assay with Staphylococcus aureus it was 2.66 µM (≈ 3 µg/mL); against Staphylococcus aureus MR, 22.2 µM (≈ 25 µg/mL); in the assay with Pseudomonas aeruginosa, 3.55 µM (≈ 4 µg/mL).
For the molecule `CC(C)[C@H](NC(=O)[C@H](CCCN=C(N)N)NC(=O)[C@H](Cc1c[nH]c2ccccc12)NC(=O)[C@H](Cc1c[nH]c2ccccc12)NC(=O)[C@H](Cc1c[nH]c2ccccc12)NC(=O)[C@H](CCCN=C(N)N)NC(=O)[C@H](Cc1c[nH]c2ccccc12)NC(=O)[C@@H](N)CCCN=C(N)N)C(=O)N[C@@H](Cc1ccc(O)cc1)C(=O)O` [RWRWWWRVY], the MIC came out at 13.2 µM (≈ 19.7 µg/mL) in assay [13]; 3.3 µM (≈ 4.93 µg/mL) in assay [7]; 1.6 µM (≈ 2.39 µg/mL) in the assay with Escherichia coli UB1005; 1.6 µM (≈ 2.39 µg/mL) in assay [14]; 3.3 µM (≈ 4.93 µg/mL) in assay [8]; 3.3 µM (≈ 4.93 µg/mL) in assay [15]. Further, the MIC with Candida albicans was found to be 13.2 µM (≈ 19.7 µg/mL).
The molecule `CC[C@H](C)[C@H](NC(=O)[C@H](Cc1c[nH]c2ccccc12)NC(=O)[C@H](CCCN=C(N)N)NC(=O)[C@H](CCCN=C(N)N)NC(=O)[C@H](Cc1c[nH]c2ccccc12)NC(=O)[C@@H](N)CCCCN)C(=O)N[C@@H](C)C(=O)N[C@@H](Cc1c[nH]c2ccccc12)C(=O)N[C@@H](CC(C)C)C(N)=O` [KWRRWIAWL] registered a minimum inhibitory concentration (MIC) in assay [11] of 12.5 µM (≈ 16.4 µg/mL). That is a double-digit micromolar value.
Still for that read-out and setting: the result for `CC[C@H](C)[C@H](NC(=O)[C@H](Cc1c[nH]c2ccccc12)NC(=O)[C@H](CCCN=C(N)N)NC(=O)[C@H](CCCN=C(N)N)NC(=O)[C@H](Cc1c[nH]c2ccccc12)NC(=O)[C@@H](N)CCCCN)C(N)=O` [KWRRWI] reads at least 100 µM; that for `CC[C@H](C)[C@H](NC(=O)[C@H](Cc1c[nH]c2ccccc12)NC(=O)[C@H](CC(C)C)NC(=O)[C@H](CCCN=C(N)N)NC(=O)[C@H](Cc1c[nH]c2ccccc12)NC(=O)[C@@H](N)CCCCN)C(=O)N[C@@H](CCCN=C(N)N)C(=O)N[C@@H](Cc1c[nH]c2ccccc12)C(=O)N[C@@H](CC(C)C)C(N)=O` [KWRLWIRWL], 12.5 µM (≈ 16.9 µg/mL).
